≈ marks a conversion by molar mass, not a printed value. Calls of active or inactive are those of the source. The rule behind the calls is not given here.
Experiments:
[1] = test system: Plasmodium falciparum; assay: Antiplasmodial activity against Plasmodium falciparum D6 measured after 72 hrs by SYBR green fluorescence dye based microplate reader analysis; format: functional, organism-based; details: D6, 72 h
[2] = Selectivity index, ratio of TC50 for human HepG2 cells to EC50 for antileishmanial activity against Leishmania major amastigotes infected in mouse RAW 264.7 cells; format: toxicity, cell-based
[3] = Intrinsic clearance in rat hepatocytes assessed as per million cells; format: ADME, cell-based, Hepatocyte; details: read-out: CLH
[4] = test system: Trypanosoma cruzi; assay: Antitrypanosomal activity against Trypanosoma cruzi Tulahuen trypomastigotes infected in mouse NIH/3T3 cells measured after 96 hrs by beta-galactosidase reporter gene assay; format: functional, organism-based; details: NIH3T3, 96 h
[5] = test system: Leishmania major; assay: Antileishmanial activity against Leishmania major amastigotes infected in mouse RAW 264.7 cells by luciferase reporter gene assay; format: functional, organism-based; details: RAW264.7
[6] = Cytotoxicity against human HepG2 cells assessed as reduction in cell viability; format: cell-based; details: read-out: TC50 (the source's name)
[7] = Aqueous solubility of compound at pH 7.4; format: physicochemical; details: aqueous solution, read-out: solubility
[8] = Protein binding in human plasma; format: ADME, cell-free; details: read-out: PPB (converted)
[9] = Intrinsic clearance in human liver microsomes assessed as per mg protein; format: ADME, Microsome
[10] = Selectivity index, ratio of TC50 for mouse C2C12 cells to EC50 for antitrypanosomal activity against Trypanosoma cruzi CaI-72 trypomastigotes infected in mouse C2C12 cells; format: toxicity, cell-based
[11] = Selectivity index, ratio of TC50 for human HepG2 cells to EC50 for antiplasmodial activity against Plasmodium falciparum D6; format: toxicity
[12] = test system: Trypanosoma cruzi; assay: Antitrypanosomal activity against Trypanosoma cruzi CaI-72 trypomastigotes infected in mouse C2C12 cells measured after 72 hrs by DAPI staining based assay; format: functional, organism-based; details: CaI-72, C2C12, 72 h
[13] = test system: Leishmania donovani; assay: Antileishmanial activity against Leishmania donovani infected in mouse B10R cells after 72 hrs by DAPI staining based assay; format: functional, organism-based
[14] = test system: Leishmania donovani; assay: Antileishmanial activity against Leishmania donovani promastigotes infected in BALB/c mouse assessed as effect on parasitemia at 50 mg/kg bid for 14 days and measured after 5 weeks post infection; format: functional, organism-based
[15] = Selectivity index, ratio of TC50 for mouse B10R cells to EC50 for antileishmanial activity against Leishmania donovani infected in mouse B10R cells; format: toxicity, cell-based

Row | SMILES | EC50 [1] [nM] | selectivity ratio [2] | EC50 [5] [nM] | selectivity ratio [10] | selectivity ratio [11] | EC50 [12] [nM] | EC50 [13] [nM] | other results
1 | CS(=O)(=O)N1CCN(c2ncc(-c3ccc4c(Nc5cnccn5)ccnc4c3)cn2)CC1 | > 4300 | > 45 | 730 |  |  |  |  | hepatocyte CLint [3]: 28 µL/min/1e6 cells; EC50 [4]: 45000 nM; CC50 [6]: > 33000 nM; solubility [7]: 0.06 µM (≈ 0.0278 µg/mL); fraction unbound [8]: 0.05; microsomal CLint ([9]; liver microsomes, read-out: CLH): 44 µL/min/mg
2 | CN1CCCN(c2ncc(-c3ccc4c(c3)ncc3c5ccccc5[nH]c43)cn2)CC1 | 46 |  | > 5000 | 6.7 | > 161 | 240 |  | 
3 | COc1ccc(Nc2ccnc3cc(-c4cnc(N5CCCN(C)CC5)nc4)ccc23)cc1Cl | 6 | 4.3 | 1600 | 12 | 1130 | 80 | > 10000 | 
4 | CN1CCCN(c2ccc(-c3ccc4c(Nc5cnccn5)ccnc4c3)cc2)CC1 | 10 | 1.7 | 5500 | 1 | 960 | 370 |  | solubility [7]: 4.1 µM (≈ 1.68 µg/mL)
5 | CN1CCN(c2ncc(-c3ccc4c(N[C@@H]5CCCC[C@H]5O)ccnc4c3)cn2)CC1 | 37 |  | > 2400 |  |  | > 10000 | > 10000 | 
6 | CN1CCCN(c2ncc(-c3ccc4c(Nc5cnccn5)ccnc4c3)cn2)CC1 | 24 |  | 24000 |  |  | 1200 |  | 
7 | Cc1cncc(Nc2ccnc3cc(-c4cnc(N5CCCN(C)CC5)nc4)ccc23)n1 | 19 | 2 | 9200 |  | 947 |  |  | 
8 | O=S(=O)(c1ccc(-c2ccc3nccc(NCCN4CCCC4)c3c2)cc1)N1CCOCC1 | 30 |  | > 21000 | 0.89 | 307 | 1900 |  | 
9 | CN1CCN(c2nccc(Nc3ccc4c(Nc5cnccn5)ccnc4c3)n2)CC1 | 180 |  | 3300 |  |  |  |  | EC50 [4]: > 50000 nM
10 | CN1CCN(c2ncc(-c3ccc4c(NC5CCC(N(C)C)CC5)ccnc4c3)cn2)CC1 (stereo unspecified) | 53 |  | > 2200 |  |  | > 10000 | > 10000 | 
11 | CN1CCCN(c2ncc(-c3ccc(C(=O)Nc4cccc(Cl)c4F)c(O)c3)cn2)CC1 | 71 |  | > 2200 | 1.6 | > 310 | 3900 |  | 
12 | CN1CCCN(c2ncc(-c3ccc4/c(=N/c5cnccn5)ccn(C)c4c3)cn2)CC1 | 120 |  |  |  |  | 10000 | 20 | hepatocyte CLint [3]: 13 µL/min/1e6 cells; Activity [14]: inactive; CLH ([9]; microsomes): 22 µL/min
13 | CN1CCN(c2ncc(Nc3ccc4c(Nc5cnccn5)ccnc4c3)cn2)CC1 | 77 | 14 | 1700 |  | 312 |  |  | EC50 [4]: 47000 nM
14 | Cc1ccc2[nH]c3c4ccc(-c5cnc(N6CCCN(C)CC6)nc5)cc4ncc3c2c1 | 37 | 10 | 440 | 2.4 | 127 | 210 | 640 | selectivity ratio [15]: 3.6
15 | Cc1c(-c2cnc(N3CCN(C)CC3)nc2)ccc2c(Nc3cnccn3)ccnc12 | 69 |  | > 24000 |  |  |  |  | EC50 [4]: 25000 nM
16 | CN1CCN(c2ncc(-c3ccc4c(NC5CCOCC5)ccnc4c3)cn2)CC1 | 25 |  | > 25000 |  | 600 | > 10000 | 4000 | 
17 | CCCN1CCN(c2ncc(-c3ccc4c(Nc5cnccn5)ccnc4c3)cn2)CC1 | 23 |  | 4300 |  |  | 7600 |  | 
18 | CN1CCCN(c2ncc(-c3ccc4c(Nc5ccc(OC(F)(F)F)cc5)ccnc4c3)cn2)CC1 | 6 | 0.8 | 8200 | 38 | 233 | 60 | 85 | selectivity ratio [15]: 7.8
19 | CC(C)(C)OC(=O)N1CCN(c2ncc(-c3ccc4c(Nc5cnccn5)ccnc4c3)cn2)CC1 | 150 | > 89 | 350 |  | > 207 |  |  | EC50 [4]: > 50000 nM
20 | c1cnc(Nc2ccnc3cc(-c4cnc(N5CCNCC5)nc4)ccc23)cn1 | 130 |  | > 5200 |  | > 300 |  |  | EC50 [4]: > 50000 nM
21 | COc1ccc(NC(=O)c2cc(F)c(N3CCCN(C)CC3)cc2F)cc1Cl | 4600 |  | > 24000 | 1.6 | > 5.2 | 5500 |  | 
22 | CN1CCN(c2ncc(-c3ccc4c(NCCN5CCCC5)ccnc4c3)cn2)CC1 | 24 |  | > 24000 |  |  | 2100 | > 10000 | 

Row | SMILES | EC50 [1] [nM] | selectivity ratio [2] | EC50 [5] [nM] | selectivity ratio [10] | selectivity ratio [11] | EC50 [12] [nM] | EC50 [13] [nM] | other results
23 | CCCn1cc/c(=N\c2cnccn2)c2ccc(-c3cnc(N4CCCN(C)CC4)nc3)cc21 | 87 | > 22 | 1500 | 1.4 | > 379 | 2100 | > 10000 | 
24 | CCn1cc/c(=N\c2cnccn2)c2ccc(-c3cnc(N4CCCN(C)CC4)nc3)cc21 | 170 | > 1.5 | 23000 | 1 | > 200 | 3000 | > 10000 | 
25 | CCN1CCN(c2ncc(-c3ccc4c(Nc5cnccn5)ccnc4c3)cn2)CC1 | 29 |  | 24000 |  |  | 7700 |  | 
26 | CN1CCCN(c2ncc(-c3ccc4c(Nc5ccccn5)ccnc4c3)cn2)CC1 | 39 |  | > 24000 | 7.5 | 487 | 1300 | > 10000 | 
27 | Cc1cc2c(Nc3cnccn3)ccnc2cc1-c1cnc(N2CCN(C)CC2)nc1 | 180 | 3.3 | 1800 |  | 33 |  |  | EC50 [4]: 22000 nM
28 | CN1CCN(c2ncc(-c3ccc4/c(=N/c5cnccn5)ccn(C)c4c3)cn2)CC1 | 180 | > 10 | 2300 |  | 133 | > 10000 | > 10000 | 
29 | O=S(=O)(c1ccc(-c2ccc3nccc(NCCC4CCOCC4)c3c2)cc1)N1CCOCC1 | 75 |  | > 21000 | 1.3 | > 280 | 4700 | > 10000 | 
30 | Cc1cnc(Nc2ccnc3cc(-c4cnc(N5CCCN(C)CC5)nc4)ccc23)cn1 | 24 |  | > 23000 |  |  |  |  | 
31 | CN1C[C@H]2C[C@@H]1CN2c1ncc(-c2ccc3c(Nc4cnccn4)ccnc3c2)cn1 | 52 |  | 2600 |  |  | 6100 |  | 
32 | CN1CC2(CCN(c3ncc(-c4ccc5c(Nc6cnccn6)ccnc5c4)cn3)C2)C1 | 58 |  | > 24000 | 1.9 | > 414 | 220 |  | 
33 | CN1CCN(c2ccc(Nc3ccc4c(Nc5cnccn5)ccnc4c3)cc2)CC1 | 130 |  | 7900 |  |  |  |  | 
34 | COc1ccc(NC(=O)c2ccc(-c3cnc(N4CCCN(C)CC4)nc3)cc2O)cc1Cl | 88 |  | > 4300 |  |  | > 10000 | > 10000 | 
35 | CN1CCN(c2ncc(-c3ccc4c(Nc5ccc(OCc6cccc(F)c6)c(Cl)c5)ccnc4c3)cn2)CC1 | 18 |  | > 1500 | 290 | 167 | 30 | 23 | Activity [14]: inactive; selectivity ratio [15]: 1740
36 | CN1CCCN(S(=O)(=O)c2ccc(-c3ccc4c(Nc5ccc(OC(F)(F)F)cc5)ccnc4c3)cc2)CC1 | 140 | 7.3 | 220 | 40 | 11 | 130 | > 10000 | 
37 | CN1CCCN(S(=O)(=O)c2ccc(-c3ccc4c(Nc5ccc(Cl)cn5)ccnc4c3)cc2)CC1 | 51 | 1.4 | 1300 | 21 | 35 | 160 | > 10000 | 
38 | COc1ccc(NC(=O)c2ccc(-c3cccc(N4CCOCC4)c3)cc2O)cc1Cl | > 23000 | > 97 | 360 |  |  | > 10000 | > 10000 | 
39 | CN1CCN(c2ccnc(Nc3ccc4c(Nc5cnccn5)ccnc4c3)n2)CC1 | 54 |  |  |  |  |  |  | EC50 [4]: > 20000 nM
40 | CN1CCN(c2ncc(-c3ccc4c(NCC5CCOCC5)ccnc4c3)cn2)CC1 | 26 |  | > 24000 | 3.2 | 615 | 1200 | 8700 | 
41 | CN1CCCN(c2ncc(-c3ccc4c(Nc5cccnc5)ccnc4c3)cn2)CC1 | 25 |  | > 22000 |  | > 1320 | > 10000 | > 10000 | 
42 | CN1CCC2(CCN(c3ncc(-c4ccc5c(Nc6cnccn6)ccnc5c4)cn3)C2)C1 (stereo unspecified) | 30 |  | > 23000 | 19 | 533 | 520 |  | 
43 | CN1CCN(c2ccc(-c3ccc4c(Nc5cnccn5)ccnc4c3)cc2)CC1 | 74 |  | > 23000 |  |  |  |  | EC50 [4]: 6100 nM

Source: ChEMBL document CHEMBL4342474, “Scaffold and Parasite Hopping: Discovery of New Protozoal Proliferation Inhibitors” (ACS Med Chem Lett, 2020)
